In article PMC9525273 (Nature Communications, 2022):
“And” between values parts separate entries of the source, which are not always exact repeats. Equal entries are not always repeated. Where two headings read alike, the source gives them in different places.

Experiments:
[1] = system: MMV665949-selected Culture 1 (from Dd2-Polδ; not cloned); test: P. falciparum proliferation assay (72 h, fluorescent DNA-intercalating dye); assay type: cell-based, Plasmodium falciparum; details: Plasmodium falciparum, DD2; MMV665949-selected Culture 1; mean ± SEM, n = 3; read-out: IC50 value
Protocol: (§1) For experiments with all other parasites, the effects of compounds of interest on parasite proliferation was measured in 96-well plates containing serial dilutions of the compounds in culture medium, with a fluorescent DNA-intercalating dye used to detect surviving parasites. The assays were initiated with erythrocytes infected with predominantly ring-stage parasites, and the starting parasitaemia and haematocrit were both 1%. […] Fluorescence was measured using a FLUOstar OPTIMA plate reader (BMG LABTECH), with OPTIMA version 2.20R2 and MARS Data Analysis Software version 3.01 R2 (BMG LABTECH).

[2] = clinical trials, sustained periods; cited from earlier work
[3] = system: NF54^G358S-3 parasites; test: P. falciparum proliferation assay (72 h, flow cytometry, SYBR Green I/MitoTracker); assay type: cell-based; details: Plasmodium falciparum, NF54G358S-3, mean ± SEM, n = 3
Protocol: Two types of parasite proliferation assays were employed in this study, with both yielding highly consistent results. For the NF54-based lines and Dd2-B2-PfATP4^G358S and its parent, assays were initiated with cultures containing predominantly ring-stage parasites with a parasitaemia of 0.3% and a haematocrit of 1%. All assays using NF54 were performed in culture media containing 10% O + human serum. The duration of the assays was 72 h and the concentration of DMSO was <0.5% (v/v). Serial dilutions of the test compounds were performed using a Tecan D300e digital dispenser, with parasite cultures added manually. Parasite survival was assessed by flow cytometry on an Intellicyt iQue3 (Essen Bioscience), with 1× SYBR Green I (Invitrogen) and 200 nM MitoTracker Deep Red FM (Invitrogen) used to stain the nucleus and the mitochondria in live parasites, respectively. The gating strategy used to quantify parasite survival, performed using FlowJo version 10 (FlowJo LLC.), is illustrated in Supplementary Fig. 9. IC50 and IC90 values were calculated by linear interpolation of the dose-response data.

[4] = system: isolated Dd2-Polδ P. falciparum trophozoites; test: [Na+]cyt measurement (SBFI), Na+ dysregulation; assay type: cell-based, Plasmodium falciparum; design: Final [Na+]cyt reached: unit not given here; details: for Final [Na+]cyt reached: Dd2-Polδ; for IC50: Plasmodium falciparum
Protocol: (§2) The ratio of the fluorescence intensity recorded at 340 nm and 380 nm (with an emission wavelength of 515 nm) was converted to [Na^+]cyt using a calibration procedure that entailed suspending parasites in solutions of varying [Na^+] containing ionophores. Fluorescence measurements and calibrations were performed at 37 °C, either with individual 1 mL suspensions using a PerkinElmer LS 50B fluorescence spectrometer (for resting [Na^+]cyt measurements for which the data are shown in Supplementary Fig. 7) or in 96-well plates using a Tecan Infinite M1000 PRO plate reader with i-control (version 1.12) software (all other [Na^+]cyt measurements).

[5] = system: isolated Dd2-Polδ-PfATP4^G358S P. falciparum trophozoites; test: [Na+]cyt measurement (SBFI), Na+ dysregulation; assay type: cell-based, Plasmodium falciparum; design: Final [Na+]cyt reached: unit not given here
Protocol: as §2

[6] = system: cipargamin-selected culture A (from Dd2-PfATP4^T418N,P990R); test: P. falciparum proliferation assay (72 h, fluorescent DNA-intercalating dye); assay type: cell-based; details: Plasmodium falciparum, culture A at end of drug-exposure period, mean ± SEM, n = 3
Protocol: as §1

[7] = system: cipargamin-selected culture B (from Dd2-PfATP4^T418N,P990R); test: as above; assay type: cell-based; details: Plasmodium falciparum, culture B at end of drug-exposure period, mean ± SEM, n = 3
Protocol: as §1

C[C@H]1Cc2c([nH]c3cc(Cl)c(F)cc23)[C@@]2(N1)C(=O)Nc1ccc(Cl)cc12 [Cipargamin]
IC50 [1]: 1.42 ± 0.3 nM | concentration reached in human plasma [2]: supramicromolar concentrations | IC50 [3]: 2200 ± 700 nM | Final [Na+]cyt reached ([4]; [cipargamin] 0.06 nM, MEAN): 13.0 | Final [Na+]cyt reached ([4]; [cipargamin] 0.12 nM, MEAN): 12.3 | Final [Na+]cyt reached ([4]; [cipargamin] 0.244 nM, MEAN): 15.5 | Final [Na+]cyt reached ([4]; [cipargamin] 0.5 nM, MEAN): 26.2 | Final [Na+]cyt reached ([4]; [cipargamin] 1.0 nM, MEAN): 27.3 | Final [Na+]cyt reached ([4]; [cipargamin] 2.0 nM, MEAN): 45.7 | Final [Na+]cyt reached ([4]; [cipargamin] 3.9 nM, MEAN): 57.4 | Final [Na+]cyt reached ([4]; [cipargamin] 7.8 nM, MEAN): 88.5 | Final [Na+]cyt reached ([4]; [cipargamin] 15.6 nM, MEAN): 98.7 | Final [Na+]cyt reached ([4]; [cipargamin] 31.3 nM, MEAN): 113.1 | Final [Na+]cyt reached ([4]; [cipargamin] 62.5 nM, MEAN): 115.1 | Final [Na+]cyt reached ([4]; [cipargamin] 62.5 nM, single experiments): 78.0 and 146.2 and 96.4 and 129.7 and 125.5 | Final [Na+]cyt reached ([4]; [cipargamin] 250 nM, MEAN): 115.9 | Final [Na+]cyt reached ([4]; [cipargamin] 250 nM, single experiments): 94.4 and 105.7 and 130.4 and 132.9 | IC50 ([4]; DD2, 1.5 h, pH 7.1, Dd2-Polδ, ~90 min exposure, 37 °C, pH 7.1, mean ± SEM, read-out: IC50 for Na+ dysregulation): 8.4 ± 3 nM | IC50 ([4]; DD2, Dd2-Polδ, MEAN, source data of Table 1 (nM there), read-out: IC50 for Na+ dysregulation, MEAN): 8.38 nM | Final [Na+]cyt reached ([5]; Dd2-Polδ-PfATP4G358S, [cipargamin] 4.9 nM, MEAN): 28.1 | Final [Na+]cyt reached ([5]; Dd2-Polδ-PfATP4G358S, [cipargamin] 4.9 nM, single experiments): 19.9 and 30.8 and 33.6 | Final [Na+]cyt reached ([5]; Dd2-Polδ-PfATP4G358S, [cipargamin] 9.8 nM, MEAN): 23.6 | Final [Na+]cyt reached ([5]; Dd2-Polδ-PfATP4G358S, [cipargamin] 19.5 nM, MEAN): 24.9 | Final [Na+]cyt reached ([5]; Dd2-Polδ-PfATP4G358S, [cipargamin] 39.1 nM, MEAN): 26.7 | Final [Na+]cyt reached ([5]; Dd2-Polδ-PfATP4G358S, [cipargamin] 78.1 nM, MEAN): 27.0 | Final [Na+]cyt reached ([5]; Dd2-Polδ-PfATP4G358S, [cipargamin] 156.3 nM, MEAN): 28.5 | Final [Na+]cyt reached ([5]; Dd2-Polδ-PfATP4G358S, [cipargamin] 312.5 nM, MEAN): 31.8 | Final [Na+]cyt reached ([5]; Dd2-Polδ-PfATP4G358S, [cipargamin] 625 nM, MEAN): 35.9 | Final [Na+]cyt reached ([5]; Dd2-Polδ-PfATP4G358S, [cipargamin] 2500 nM, MEAN): 55.3 | Final [Na+]cyt reached ([5]; Dd2-Polδ-PfATP4G358S, [cipargamin] 5000 nM, MEAN): 78.8 | Final [Na+]cyt reached ([5]; Dd2-Polδ-PfATP4G358S, [cipargamin] 10000 nM, MEAN): 93.3 | IC50 ([5]; Dd2-Polδ-PfATP4G358S, single experiments, source data of Table 1 (nM there), read-out: IC50 for Na+ dysregulation): > 2500 nM and 3420 nM and 2100 nM and 3020 nM | IC50 ([5]; Plasmodium falciparum, DD2, 1.5 h, pH 7.1, Dd2-Polδ-PfATP4G358S, ~90 min exposure, 37 °C, pH 7.1, read-out: IC50 for Na+ dysregulation): > 2000 nM | IC50 ([5]; Plasmodium falciparum, DD2, Dd2-Polδ-PfATP4G358S, MEAN, source data of Table 1 (nM there), read-out: IC50 for Na+ dysregulation, MEAN): > 2000 nM | IC50 ([5]; Plasmodium falciparum, DD2, Dd2-Polδ-PfATP4G358S, single experiments, source data of Table 1 (nM there), read-out: IC50 for Na+ dysregulation): 3540 nM | IC50 [6]: 5900 ± 200 nM | IC50 [7]: 6200 ± 200 nM
